Our source for the AC50 values is PubChem BioAssay AID720604 (Broad Institute, 2013).

This test deals with HUVEC viability, CellTiter-Glo ATP luminescence, 8-48 h. Description: cytotoxicity in primary human umbilical endothelium – cell-based, CellTiter-Glo ATP luminescence, 8/24/48 h, dry powder, cytotoxicity control for HRAS target identification, dose response (AID 720604).

The structures appear in SMILES notation. Inconclusive results are not listed.

Consider `COc1ccc(N(C(=O)CCl)C(C(=O)NCCc2ccccc2)c2cccs2)cc1Cl` (stereo not given), for which the AC50 – broadly, the midpoint of the concentration-response curve, whichever way the signal moves – runs as follows: (measured here: 8 h treatment) 25.4 µM; (measured here: 24 h treatment) 5.53 µM; (measured here: 48 h treatment) 5.1 µM.

For `CC(C)(C)OC(=O)NCCOCCOCCOc1ccc(N(C(=O)CCl)C(C(=O)NCCc2ccccc2)c2cccs2)cc1Cl` (stereo not given), the AC50 by setting is: (measured here: 24 h treatment) 7.15 µM; (measured here: 48 h treatment) 7.2 µM.
